In patent publication US20250388584A1, “TPK AGONIST AND METHOD FOR TREATING NEURODEGENERATIVE DISEASES USING SAME” (SHANGHAI RAISING PHARMACEUTICAL CO., LTD., priority 2022, published 2025):
Structures can show the parent of a compound that is named as a salt. Where two headings read alike, the source gives them in different places.

Molecular target: TPK enzyme (Homo sapiens (Human), UniProt Q9H3S4)
Assay: TPK enzyme activity test
Assay type: biochemical
Details: for Emax: calculated with the effect of DMSO on TPK enzyme activity as 100%; for EC50: promoting effect on TPK enzyme activity

Sequence of TPK enzyme (Q9H3S4 whole entry): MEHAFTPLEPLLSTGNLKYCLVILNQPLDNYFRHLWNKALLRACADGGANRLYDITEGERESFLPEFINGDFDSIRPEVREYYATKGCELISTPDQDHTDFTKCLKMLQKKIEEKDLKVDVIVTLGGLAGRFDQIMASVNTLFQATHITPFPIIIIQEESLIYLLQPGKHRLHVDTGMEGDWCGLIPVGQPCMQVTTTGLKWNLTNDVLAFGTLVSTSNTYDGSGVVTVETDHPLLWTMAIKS

SMILES | Emax (read-out: Emax) | EC50 | Emax
O=C(CCn1cnc2c([nH]c3ccc(C(F)(F)F)cc32)c1=O)NCc1cccc(C(F)(F)F)c1 [Compound 71, 3-(4-oxo-8-(trifluoromethyl)-4,5-dihydro-3H-pyrimido[5,4-b]indol-3-yl)-N-(3-(trifluoromethyl)benzyl)propanamide] | 142% |  | 
O=C(CCCn1cnc2c(c1=O)CCCc1ccccc1-2)N1CCN(c2cccc(C(F)(F)F)c2)CC1 [Compound 228, 3-(4-oxo-4-(4-(3-(trifluoromethyl)phenyl)piperazin-1-yl)butyl)-3,5,6,7-tetrahydro-4H-benzo[6,7]cyclohepta[1,2-d]pyrimidin-4-one] | 148% | 2130 nM | 
Cc1ccc2c(c1)-c1nc(=O)n(CCCC(=O)N3CCC(Cc4ccc(F)cc4)CC3)cc1CO2 [Compound 220, 3-(4-(4-(4-fluorobenzyl)piperidin-1-yl)-4-oxobutyl)-9-methyl-3,5-dihydro-2H-chromeno[4,3-d]pyrimidin-2-one] | 157% | 3890 nM | 
Cc1ccc2c(c1)[nH]c1c(=O)n(CCC(=O)N3CCN(c4c(Cl)cccc4Cl)CC3)cnc12 [Compound 20, 3-(3-(4-(2,6-dichlorophenyl)piperazin-1-yl)-3-oxopropyl)-7-methyl-3,5-dihydro-4H-pyrimido[5,4-b]indol-4-one] | 121% |  | 
Cc1ccc2c(c1)[nH]c1c(=O)n(CCC(=O)N3CCN(c4cccc(C(F)(F)F)c4)CC3)cnc12 [Compound 22, 7-methyl-3-(3-oxo-3-(4-(3-(trifluoromethyl)phenyl)piperazin-1-yl)propyl)-3,5-dihydro-4H-pyrimido[5,4-b]indol-4-one] | 207% |  | 
O=C1c2ccccc2CN1CCCN1CCSc2ccc(C(F)(F)F)cc21 [Compound 197, 2-(3-(6-(trifluoromethyl)-2,3-dihydro-4H-benzo[b][1,4]thiazin-4-yl)propyl)isoindolin-1-one] | 132% |  | 
O=C(CCn1cnc2c([nH]c3ccc(F)cc32)c1=O)N1CCC(Cc2ccc(F)cc2)CC1 [Compound 154, 8-fluoro-3-(3-(4-(4-fluorobenzyl)piperidin-1-yl)-3-oxopropyl)-3,5-dihydro-4H-pyrimido[5,4-b]indol-4-one] | 144% | 2600 nM | 
Cc1cccc(N2CCN(C(=O)CCn3cnc4c([nH]c5ccc(C)cc54)c3=O)CC2)c1 [Compound 38] | 145% |  | 
Cc1ccc2[nH]c3c(=O)n(CCC(=O)NCCN(C)c4cccc(C(F)(F)F)c4)cnc3c2c1 [Compound 93, N-(2-(methyl(3-(trifluoromethyl)phenyl)amino)ethyl)-3-(8-methyl-4-oxo-4,5-dihydro-3H-pyrimido[5,4-b]indol-3-yl)propanamide] | 192% |  | 
Cc1ccc2[nH]c3c(=O)n(CCC(=O)N4CCC(O)(c5cccc(C(F)(F)F)c5)CC4)cnc3c2c1 [Compound 165, 3-(3-(4-hydroxy-4-(3-(trifluoromethyl)phenyl)piperidin-1-yl)-3-oxopropyl)-8-methyl-3,5-dihydro-4H-pyrimido[5,4-b]indol-4-one] | 157% | 2490 nM | 
Cc1cccc2c1[nH]c1c(=O)n(CCC(=O)N3CCN(c4cccc(C(F)(F)F)c4)CC3)cnc12 [Compound 23, 6-methyl-3-(3-oxo-3-(4-(3-(trifluoromethyl)phenyl)piperazin-1-yl)propyl)-3,5-dihydro-4H-pyrimido[5,4-b]indol-4-one] | 121% |  | 
COc1cc2[nH]c3c(=O)n(CC(=O)NCc4cccc(C(F)(F)F)c4)cnc3c2cc1OC [Compound 113] | 120% |  | 
Cc1ccc2[nH]c3c(=O)n(CCC(=O)N4CCN(c5cccc(C)c5C)CC4)cnc3c2c1 [Compound 44] | 152% | 3300 nM | 
O=C(CCn1cnc2c(sc3ccccc32)c1=O)N1CCC(O)(c2cccc(C(F)(F)F)c2)CC1 [Compound 147, 3-(3-(4-hydroxy-4-(3-(trifluoromethyl)phenyl)piperidin-1-yl)-3-oxopropyl)benzo[4,5]thieno[3,2-d]pyrimidin-4(3H)-one] | 160% | 7720 nM | 
Cc1ccc2[nH]c3c(=O)n(CCC(=O)N(C)CCNc4cccc(C(F)(F)F)c4)cnc3c2c1 [Compound 91, N-methyl-3-(8-methyl-4-oxo-4,5-dihydro-3H-pyrimido[5,4-b]indol-3-yl)-N-(2-((3-(trifluoromethyl)phenyl)amino)ethyl)propanamide] | 140% | 3720 nM | 
Cc1ccc2[nH]c3c(=O)n(CC(=O)NCCCN4CCN(Cc5ccccc5)CC4)ncc3c2c1 [Compound 55] | 159% | 10600 nM | 
Cc1ccc2[nH]c3c(=O)n(CCC(=O)N4CCN(c5cccc(C(N)=O)c5)CC4)cnc3c2c1 [Compound 28, 3-(4-(3-(8-methyl-4-oxo-4,5-dihydro-3H-pyrimido[5,4-b]indol-3-yl)propanoyl)piperazin-1-yl)benzamide] | 124% |  | 
O=C(CCn1cnc2c(oc3ccc(F)cc32)c1=O)N1CCC(O)(c2cccc(C(F)(F)F)c2)CC1 [Compound 151, 8-fluoro-3-(3-(4-hydroxy-4-(3-(trifluoromethyl)phenyl)piperidin-1-yl)-3-oxopropyl)benzofuro[3,2-d]pyrimidin-4(3H)-one] | 189% | 5980 nM | 
Cc1ccc2[nH]c3c(=O)n(CCC(=O)N4CCN(c5cc(Cl)ccc5C)CC4)cnc3c2c1 [Compound 42] | 156% | 3960 nM | 
O=C(CCn1cnc2c([nH]c3ccccc32)c1=O)N1CCN(c2cccc(C(F)(F)F)c2)CC1 [Compound 5, 3-(3-oxo-3-(4-(3-(trifluoromethyl)phenyl)piperazin-1-yl)propyl)-3,5-dihydro-4H-pyrimido[5,4-b]indol-4-one] | 139% | 2290 nM | 
Cc1ccc2[nH]c3c(=O)n(CCC(=O)NCc4cccc(O)c4)cnc3c2c1 [Compound 82, N-(3-hydroxybenzyl)-3-(8-methyl-4-oxo-4,5-dihydro-3H-pyrimido[5,4-b]indol-3-yl)propanamide] | 123% |  | 

Now from value to molecule:

Emax (read-out: Emax) | EC50 | Emax | SMILES
187% | 1200 nM |  | Cc1ccc2[nH]c3c(=O)n(CCC(=O)NCc4cccc(C(F)(F)F)c4)ccc3c2c1 [Compound 67, 3-(6-methyl-1-oxo-1,9-dihydro-2H-pyrido[3,4-b]indol-2-yl)-N-(3-(trifluoromethyl)benzyl)propanamide]
145% | 463 nM |  | Cc1ccc2[nH]c3c(=O)n(CCCC(=O)N4CCN(c5cccc(Cl)c5Cl)CC4)cnc3c2c1 [Compound 15, 3-(4-(4-(2,3-dichlorophenyl)piperazin-1-yl)-4-oxobutyl)-8-methyl-3,5-dihydro-4H-pyrimido[5,4-b]indol-4-one]
 | 1810 nM | 136% | Cc1ccc2c(c1)N1CCCC(C(=O)NCCCN3CCN(c4cccc(C(F)(F)F)c4)CC3)C1CO2 (stereo not drawn) [Formate salt of 232, 2-methyl-N-(3-(4-(3-trifluoromethylphenyl)piperazin-1-yl)propyl)-6,6a,7,8,9,10-hexahydrobenzo[b]pyrido[1,2-d][1,4]oxazine-7-carboxamide Formate]
159% | 1190 nM |  | Cc1ccc2oc3c(=O)n(CCC(=O)N4CCN(c5cccc(C(F)(F)F)c5)CC4)cnc3c2c1 [Compound 57, 8-methyl-3-(3-oxo-3-(4-(3-(trifluoromethyl)phenyl)piperazin-1-yl)propyl)benzofuro[3,2-d]pyrimidin-4(3H)-one]
158% | 1220 nM |  | COc1cccc(N2CCN(C(=O)Cn3cnc4c([nH]c5ccc(C)cc54)c3=O)CC2)c1 [Compound 45]
174% | 546 nM |  | Cc1ccc2c(c1)-c1nc(=O)n(CCCN3CCN(c4cccc(Cl)c4Cl)CC3)cc1CO2 [Compound 213, 3-(3-(4-(2,3-dichlorophenyl)piperazin-1-yl)propyl)-9-methyl-3,5-dihydro-2H-chromeno[4,3-d]pyrimidin-2-one]
 | 107 nM | 186.22% | O=C1CCc2ccc(OCCCCN3c4ccccc4Sc4ccc(C(F)(F)F)cc43)cc2N1 [Compound 204]
180% | 1080 nM |  | Cc1cccc2[nH]c3c(=O)n(CCC(=O)N4CCN(c5cccc(C(F)(F)F)c5)CC4)cnc3c12 [Compound 11, 9-methyl-3-(3-oxo-3-(4-(3-(trifluoromethyl)phenyl)piperazin-1-yl)propyl)-3,5-dihydro-4H-pyrimido[5,4-b]indol-4-one]
154% | 1650 nM |  | O=C(CCn1cnc2c(c1=O)CCCc1ccccc1-2)N1CCN(c2cccc(C(F)(F)F)c2)CC1 [Compound 221, 3-(3-oxo-3-(4-(3-(trifluoromethyl)phenyl)piperazin-1-yl)propyl)-3,5,6,7-tetrahydro-4H-benzo[6,7]cyclohepta[1,2-d]pyrimidin-4-one]
208% | 1030 nM |  | O=C(CCn1cnc2c([nH]c3ccc(C(F)(F)F)cc32)c1=O)N1CCN(c2cccc(C(F)(F)F)c2)CC1 [Compound 6, 3-(3-oxo-3-(4-(3-(trifluoromethyl)phenyl)piperazin-1-yl)propyl)-8-(trifluoromethyl)-3,5-dihydro-4H-pyrimido[5,4-b]indol-4-one]
180% | 1200 nM |  | O=C1c2ccccc2CN1CCCN1c2ccccc2Sc2ccccc21 [Compound 189, 2-(3-(10H-phenothiazin-10-yl)propyl)isoindolin-1-one]
 | 500 nM | 143% | O=c1c2c(ncn1CCCN1CCN(c3cccc(Cl)c3Cl)CC1)-c1ccccc1CCC2 [Formate salt of 222, 3-(3-(4-(2,3-dichlorophenyl)piperazin-1-yl)propyl)-3,5,6,7-tetrahydro-4H-benzo[6,7]cyclohepta[1,2-d]pyrimidin-4-one Formate]
151% | 1990 nM |  | O=C(CCn1cnc2c(oc3ccc(F)cc32)c1=O)N1CCN(c2cccc(C(F)(F)F)c2)CC1 [Compound 148, 8-fluoro-3-(3-oxo-3-(4-(3-(trifluoromethyl)phenyl)piperazin-1-yl)propyl)benzofuro[3,2-d]pyrimidin-4 (3H)-one]
144% | 360 nM |  | Cc1ccc2[nH]c3c(=O)n(CCC(=O)N4CCN(c5cc(C(F)(F)F)cc(C(F)(F)F)c5)CC4)cnc3c2c1 [Compound 16, 3-(3-(4-(3,5-bis(trifluoromethyl)phenyl)piperazin-1-yl)-3-oxopropyl)-8-methyl-3,5-dihydro-4H-pyrimido[5,4-b]indol-4-one]
